Source: patent US10004762B2, “Dialysis formulation” (Gambro Lundia AB, priority 2013, dated 2018)
Like-named read-outs stand apart in the source and are kept apart here.

Tests used:
[1] = Loss of trace elements during 24 h CRRT treatment (FIG. 5A-5B); details: patients with CRRT (acute dialysis treatment)
[2] = Trace element concentrations in effluent of hemodialysis patients (ICP-MS); details: effluent from HD patients at the end of dialysis session
Description: (§1) Trace element concentrations have been analyzed in effluent obtained from hemodialysis (HD) patients at the end of their dialysis session.
(§2) In the study participated 47 hemodialysis patients. […] All patients received dialysis 3-5 h, 3-4 times per week. Whole blood and plasma samples for trace element analysis were obtained pre- and post-midweek dialysis treatment in 6 ml trace element-free EDTA tubes (BD Vaccutainer®, Stockholm, Sweden). In addition effluent samples were taken post-treatment in 50 ml trace element-free tubes.
(§3) Analysis of all trace elements was performed by inductively coupled plasma-mass spectrometry (ICP-MS; Thermo X7, Thermo Elemental, Winsford, UK). For plasma and blood a sample volume of 250 μL was diluted 10 times with an alkaline solution according to Bárány et al. The effluent was analysed in acidic condition, i.e. concentrated nitric acid (HNO3) was added to the samples to a final concentration of 2%. Using the dilute solution or 2% HNO3 as a carrier/rinsing fluid, the samples were introduced in a segment-flow mode.

[3] = Trace element analysis in plasma and whole blood of HD patients and healthy controls (ICP-MS); details: for P2 plasma sample post-dialysis ± SEM / P1 plasma sample pre-dialysis ± SEM / B2 whole blood sample post-dialysis ± SEM / B1 whole blood sample pre-dialysis ± SEM: all HD patients; for P control ± SEM / B control ± SEM: healthy controls; for B2 whole blood sample post-dialysis ± SEM / B1 whole blood sample pre-dialysis ± SEM / B control ± SEM: whole blood; for increase of concentration during dialysis: plasma and whole blood, HD patients (FIG. 2)
Description: (§4) In the study participated 47 hemodialysis patients. These 47 hemodialysis patients (34 female and 13 male), were divided into 30 non-diabetic and 17 with diabetes mellitus, with an average age of 67 (Table 1). All patients received dialysis 3-5 h, 3-4 times per week. Whole blood and plasma samples for trace element analysis were obtained pre- and post-midweek dialysis treatment in 6 ml trace element-free EDTA tubes (BD Vaccutainer®, Stockholm, Sweden). […] In addition, the same samples were taken at one occasion from a healthy control group. The control group included 51 persons (20 female and 31 male), with an average age of 22.
as §3

[4] = in vivo
[5] = human, in vivo
Description: as §4, §3

[6] = in vivo; remark: listed apart in the source
[7] = human, in vivo; remark: listed apart in the source
Description: as §1, §2, §3

[8] = Loss of trace elements during hemodialysis (HD) treatment (FIG. 5C-5E); details: HD patients (chronic dialysis treatment), 4 hours of HD

actual loss during 24 hours of CRRT [4] | B1 whole blood sample pre-dialysis ± SEM [5] | B2 whole blood sample post-dialysis ± SEM [5] | B control ± SEM [5] | P1 plasma sample pre-dialysis ± SEM [5] | P2 plasma sample post-dialysis ± SEM [5] | Effluent concentration ± SD [7] | Molecule | actual loss during 24 hours of CRRT [1] | Effluent concentration ± SD [2] | P2 plasma sample post-dialysis ± SEM ([3]; plasma) | P1 plasma sample pre-dialysis ± SEM ([3]; plasma) | B2 whole blood sample post-dialysis ± SEM [3] | B1 whole blood sample pre-dialysis ± SEM [3] | P control ± SEM ([3]; plasma) | B control ± SEM [3] | actual loss / removal during HD treatment [6] | other results
– | – | – | – | – | – | – | [Cr] [Chromium] | significant loss | 0.0043 ± 0.008 µM | 5.2 ± 0.6 µg/L | 3.3 ± 0.3 µg/L | 3.4 ± 0.4 µg/L | 2.1 ± 0.2 µg/L | 0.3 ± 0.02 µg/L | 0.3 ± 0.02 µg/L | – | P1 plasma sample pre-dialysis ± SEM ([3]; plasma, listed as Cr): 3.3 ± 0.3 µg/L; plasma concentration post-dialysis ([3]; diabetic HD patients): 2.5 ± 0.4 ng/mL; P control ± SEM ([3]; plasma, listed as Cr): 0.3 ± 0.02 µg/L; plasma concentration post-dialysis ([3]; non-diabetic HD patients): 3.8 ± 0.4 ng/mL; increase of concentration during dialysis [3]: up to 60%
significant loss | 855 ± 18 µg/L | 882 ± 17 µg/L | 861 ± 27 µg/L | 1113 ± 33 µg/L | 1178 ± 29 µg/L | 0.026 ± 0.015 µM | [Cu] [Copper] | – | – | – | – | – | – | – | – | removal of those trace elements in a majority of the patients | increase of concentration during dialysis [5]: ~4%; plasma concentration [5]: 1173 ± 56 ng/mL
– | – | – | – | – | – | – | [Mn+2] [Manganese] | significant loss | 0.005 ± 0.005 µM | 3.4 ± 0.9 µg/L | 0.8 ± 0.03 µg/L | 19.3 ± 1.4 µg/L | 17 ± 1.3 µg/L | 0.7 ± 0.02 µg/L | 9.2 ± 0.4 µg/L | – | actual loss / removal during HD treatment [8]: no manganese removal at all but rather an uptake; B1 whole blood sample pre-dialysis ± SEM ([3]; listed as Mn): 17.0 ± 1.1 µg/L; blood concentration post-dialysis ([3]; diabetic HD patients): 20 ± 2.7 ng/mL; blood concentration pre-dialysis ([3]; diabetic HD patients): 17 ± 2.1 ng/mL; B control ± SEM ([3]; listed as Mn): 9.2 ± 0.4 µg/L; blood concentration post-dialysis ([3]; non-diabetic HD patients): 19 ± 1.4 ng/mL; blood concentration pre-dialysis ([3]; non-diabetic HD patients): 17 ± 1.3 ng/mL
significant loss | 2.0 ± 0.2 µg/L | 1.0 ± 0.1 µg/L | 0.6 ± 0.1 µg/L | 2.6 ± 0.2 µg/L | 1.3 ± 0.1 µg/L | 0.003 ± 0.002 µM | [Mo] [Molybdenum] | – | – | – | – | – | – | – | – | – | P control ± SEM [5]: 0.8 ± 0.1 µg/L; decrease of concentration during dialysis [5]: ~50%; plasma concentration post-dialysis [5]: 1.2 ± 0.2 ng/mL; plasma concentration pre-dialysis [5]: 3.1 ± 0.4 ng/mL; reduction of plasma concentration during dialysis [5]: 50%
large loss | 972 ± 30 µg/L | 974 ± 30 µg/L | 1966 ± 51 µg/L | 187 ± 5 µg/L | 150 ± 4 µg/L | 0.31 ± 0.17 µM | [Rb] [Rubidium] | – | – | – | – | – | – | – | – | significant removal of rubidium in a majority of the patients | P control ± SEM [5]: 271 ± 5 µg/L; decrease of plasma concentration during dialysis [5]: ~20%
– | – | – | – | – | – | – | Cobalt | significant loss | 0.0015 ± 0.002 µM | 0.6 ± 0.1 µg/L | 0.6 ± 0.03 µg/L | 0.5 ± 0.03 µg/L | 0.5 ± 0.02 µg/L | 0.4 ± 0.02 µg/L | 0.3 ± 0.01 µg/L | – | P1 plasma sample pre-dialysis ± SEM ([3]; plasma, listed as Co): 0.6 ± 0.03 µg/L; P control ± SEM ([3]; plasma, listed as Co): 0.4 ± 0.02 µg/L; increase in plasma concentration during dialysis ([3]; plasma, diabetic and non-diabetic HD patients): ~15%
– | – | – | – | – | – | – | Zinc | some subjects show a uptake of zinc (negative loss) while others show loss of zinc | 0.017 ± 0.01 µM | 685 ± 17 µg/L | 644 ± 13 µg/L | 5842 ± 131 µg/L | 5610 ± 138 µg/L | 719 ± 17 µg/L | 5189 ± 124 µg/L | – | actual loss / removal during HD treatment [8]: removal of those trace elements in a majority of the patients; B1 whole blood sample pre-dialysis ± SEM ([3]; listed as Zn): 5610 ± 138 µg/L; B control ± SEM ([3]; listed as Zn): 5189 ± 124 µg/L; increase of concentration during dialysis [3]: ~5%

Molecule | actual loss during 24 hours of CRRT [4] | B1 whole blood sample pre-dialysis ± SEM [5] | B2 whole blood sample post-dialysis ± SEM [5] | B control ± SEM [5] | P1 plasma sample pre-dialysis ± SEM [5] | P2 plasma sample post-dialysis ± SEM [5] | Effluent concentration ± SD [7] | actual loss during 24 hours of CRRT [1] | Effluent concentration ± SD [2] | P2 plasma sample post-dialysis ± SEM ([3]; plasma) | P1 plasma sample pre-dialysis ± SEM ([3]; plasma) | B2 whole blood sample post-dialysis ± SEM [3] | B1 whole blood sample pre-dialysis ± SEM [3] | P control ± SEM ([3]; plasma) | B control ± SEM [3] | actual loss / removal during HD treatment [6] | other results
[Se] [Selenium] | significant loss | – | – | – | – | – | – | – | – | – | – | – | – | – | – | significant removal of selenium in most patients | B1 whole blood sample pre-dialysis ± SEM ([5]; both): 66 ± 2 µg/L; B2 whole blood sample post-dialysis ± SEM ([5]; both): 68 ± 2 µg/L; B control ± SEM ([5]; both): 102 ± 3 µg/L; P1 plasma sample pre-dialysis ± SEM ([5]; both): 53 ± 2 µg/L; P2 plasma sample post-dialysis ± SEM ([5]; both): 55 ± 2 µg/L; P control ± SEM ([5]; both): 81 ± 1.9 µg/L; Effluent concentration ± SD ([7]; both): 0.01 ± 0.005 µM
